The record followed here is patent US4668770A, “Renin inhibitory tripeptides” (Merck & Co., Inc., priority 1984, dated 1987).

Non-standard residues stand in square brackets, D forms with d. Residues, ends and D or L forms follow the SMILES beside them. *: point of attachment. Sta = CC(C)C[C@H](N)[C@@H](O)CC(=O)O; Phenoxyacetyl = O=C(COc1ccccc1)*; Boc = CC(C)(C)OC(=O)*

The target in experiment [1] is hog kidney renin (Sus scrofa, UniProt A0A287APG1). In words: Hog renin inhibition. It is filed as biochemical. To be noted: for IC50: pH 7.3, concentration producing 50% inhibition of renin activity, read-out: I50. Here is the method: An assay was carried out in order to determine the inhibitory potency of the peptides of the present invention. The assay measured the inhibition of hog kidney renin, and was in accordance with the procedure described in Rich et al., J. Med. Chem. 23: 27, 1980, except that a pH of 7.3 was used. The results of the assay, illustrated in the table below, are expressed as I50 values, which refers to the concentration of peptide inhibitor necessary to produce 50% inhibition of renin activity. This I50 value is obtained typically by plotting data from four inhibitor concentrations.

Experiment [2] addresses T1, human kidney renin (Homo sapiens, UniProt P00797).
T1 construct: human kidney renin purified as described in Bangham; from tissue; host or cells: human kidney
T1 sequence (P00797 67-406): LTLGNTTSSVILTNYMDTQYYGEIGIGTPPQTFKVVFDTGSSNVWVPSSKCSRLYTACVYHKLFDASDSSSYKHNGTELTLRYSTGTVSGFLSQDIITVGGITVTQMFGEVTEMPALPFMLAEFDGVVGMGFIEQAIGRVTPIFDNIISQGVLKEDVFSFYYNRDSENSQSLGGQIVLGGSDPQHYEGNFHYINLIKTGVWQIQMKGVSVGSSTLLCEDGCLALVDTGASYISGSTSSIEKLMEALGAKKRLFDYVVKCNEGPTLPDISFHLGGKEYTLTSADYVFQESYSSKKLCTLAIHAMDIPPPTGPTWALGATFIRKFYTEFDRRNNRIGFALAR
In words: Human renin inhibition. It is filed as biochemical. Conditions: purified human kidney renin; dissociation constant of the inhibited enzyme-inhibitor complex. Here is the method: An assay was carried out in order to determine the inhibitory potency of the peptides of the present invention. The assay measured the inhibition of human kidney renin purified as described in Bangham, D. R., Robertson, I., Robinson, J. I. S., Robinson, C. J., and Tree, M., Clinical Science and Molecular Medicine, 48 (Supp. 2): 136s-159s (1975), and further purified by affinity chromatography on pepstatin-aminohexyl-Sepharase as described in Poe, M., Wu., J. K., Florance, J. R., Radkey, J. A., Bennett, C. D., and Hoagsteen, K., J. Biol. Chem. (1982, in press). The assay was also in accordance with Poe et al. cited above. Results are expressed as KI values, which refer to the dissociation constant of the inhibited enzyme--inhibitor complex. This KI value was obtained as described above. […]

Chain of hog kidney renin (A0A287APG1 67-407): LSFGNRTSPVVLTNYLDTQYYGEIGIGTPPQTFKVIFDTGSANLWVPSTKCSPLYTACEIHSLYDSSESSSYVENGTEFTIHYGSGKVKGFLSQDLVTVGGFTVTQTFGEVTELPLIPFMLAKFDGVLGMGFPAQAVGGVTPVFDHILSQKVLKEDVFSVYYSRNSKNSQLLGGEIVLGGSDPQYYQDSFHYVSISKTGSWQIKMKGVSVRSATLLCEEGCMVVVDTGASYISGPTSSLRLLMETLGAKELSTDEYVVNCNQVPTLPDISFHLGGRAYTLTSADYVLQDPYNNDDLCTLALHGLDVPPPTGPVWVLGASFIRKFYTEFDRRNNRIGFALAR

For `CC(C)C[C@H](NC(=O)C[C@H](O)[C@H](CC(C)C)NC(=O)[C@H](Cc1c[nH]cn1)NC(=O)C(C)Cc1ccccc1)C(=O)NCc1ccccc1` (single isomer, unassigned) [2-methyl-3-phenylpropionyl-His--Sta--Leu--benzylamide ("A" Isomer), 2-methyl-3-phenylpropionyl-His-Sta-Leu-benzylamide], in experiment [1] (pH 7.3, at 1.3 × 10^-6 M, read-out: inhibition of renin activity at 1.3 × 10^-6 (printed in the I50 column)), the inhibition (commonly the percentage by which the read-out fell short of the control) at 1.3 µM was determined as 15%.
`CC(C)C[C@H](NC(=O)C[C@H](O)[C@H](CC(C)C)NC(=O)[C@H](Cc1c[nH]cn1)NC(=O)C(CCc1ccccc1)Cc1ccccc1)C(=O)NCc1ccccc1` (stereo partly drawn) [2-phenethyl-3-phenylpropionyl-His-Sta-Leu-benzylamide]: in experiment [1], the IC50 was found to be 370 nM.
For the compound `CC(C)C[C@H](NC(=O)C[C@H](O)[C@H](Cc1ccccc1)NC(=O)[C@H](Cc1c[nH]cn1)NC(=O)C(CCCc1ccccc1)Cc1ccccc1)C(=O)NCc1ccccc1` (stereo partly drawn) [2-phenylpropyl-3-phenylpropionyl-His-AHPPA-Leu-benzylamide], the IC50 in experiment [1] was 8.1 nM. Moreover, the Ki (as a rule, the dissociation constant of the complex between target and ligand, obtained from inhibition or displacement) in experiment [2] came to 23 nM.
Consider `CC(C)C[C@H](NC(=O)C[C@H](O)[C@H](CC(C)C)NC(=O)[C@H](Cc1c[nH]cn1)NC(=O)C(Cc1ccccc1)Cc1ccccc1)C(=O)NCc1ccccc1` [2-benzyl-3-phenylpropionyl-His-Sta-Leu-benzylamide], for which the IC50 in experiment [1] turned out to be 150 nM. The compound further gave a Ki in experiment [2] of 830 nM.
The matching figures for `CC(C)C[C@H](NC(=O)C[C@H](O)[C@H](Cc1ccccc1)NC(=O)[C@H](Cc1c[nH]cn1)NC(=O)C(Cc1ccccc1)Cc1ccccc1)C(=O)NCc1ccccc1` [2-benzyl-3-phenylpropionyl-His-AHPPA-Leu-benzylamide]: 2.6 nM and 34 nM.
Turning to `CC(C)C[C@H](NC(=O)C[C@H](O)[C@H](CC(C)C)NC(=O)[C@H](Cc1c[nH]cn1)NC(=O)C(C=Cc1ccccc1)Cc1ccccc1)C(=O)NCc1ccccc1` (stereo partly drawn) [2-phenethenyl-3-phenylpropionyl-His-Sta-Leu-benzylamide], the IC50 in experiment [1] stood at 260 nM.
As to `CC(C)C[C@H](NC(=O)C[C@H](O)[C@H](CC(C)C)NC(=O)[C@H](Cc1c[nH]cn1)NC(=O)C(Cc1ccccc1)c1ccccc1)C(=O)NCc1ccccc1` (stereo partly drawn) [2,3-diphenylpropionyl-His-Sta-Leu-benzylamide], the IC50 in experiment [1] is 2200 nM. Also, the affinity in experiment [2] corresponds to a Ki of 900 nM.
As for `CC(C)C[C@H](NC(=O)C[C@H](O)[C@H](CC(C)C)NC(=O)[C@H](Cc1c[nH]cn1)NC(=O)C(C)Cc1ccccc1)C(=O)NCc1ccccc1` (single isomer, unassigned) [2-methyl-3-phenylpropionyl-His--Sta--Leu--benzylamide ("B" Isomer), 2-methyl-3-phenylpropionyl-His-Sta-Leu-benzylamide], the IC50 in experiment [1] came to 940 nM.
As for `CC(C)C[C@H](NC(=O)C[C@H](O)[C@H](CC(C)C)NC(=O)[C@H](Cc1c[nH]cn1)NC(=O)C(CCCCc1ccccc1)Cc1ccccc1)C(=O)NCc1ccccc1` (stereo partly drawn) [2-phenylbutyl-3-phenylpropionyl-His-Sta-Leu-benzylamide], the IC50 in experiment [1] turned out to be 520 nM. Moreover, in experiment [2], the Ki was 17 nM.
For `CC(C)C[C@H](NC(=O)[C@H](Cc1c[nH]cn1)NC(=O)COc1ccccc1)[C@@H](O)CC(=O)N[C@@H](Cc1ccccc1)C(=O)N[C@@H](Cc1ccccc1)C(N)=O` [POA--His--Sta--Phe--Phe--amide, POA-His-Sta-Phe-Phe-amide] (Phenoxyacetyl-H[Sta]FF-NH2), in experiment [1], the IC50 stood at 40000 nM.
Still for that read-out and setting: under `CC(C)CC=CC(Cc1ccccc1)C(=O)N[C@@H](Cc1c[nH]cn1)C(=O)N[C@@H](CC(C)C)[C@@H](O)CC(=O)N[C@@H](CC(C)C)C(=O)NCc1ccccc1` (stereo partly drawn) [2-(4,4-dimethyl-1-butenyl)-3-phenylpropionyl-His-Sta-Leu-benzylamide] stands 610 nM; under `CCC(Cc1ccccc1)C(=O)N[C@@H](Cc1c[nH]cn1)C(=O)N[C@@H](CC(C)C)[C@@H](O)CC(=O)N[C@@H](CC(C)C)C(=O)NCc1ccccc1` (stereo partly drawn) [2-ethyl-3-phenylpropionyl-His-Sta-Leu-benzylamide], 1400 nM.
Consider `CC(C)C[C@H](NC(=O)C[C@H](O)[C@H](CC(C)C)NC(=O)[C@H](Cc1c[nH]cn1)NC(=O)C(CCCc1ccccc1)Cc1ccccc1)C(=O)NCc1ccccc1` (stereo partly drawn) [2-phenylpropyl-3-phenylpropionyl-His-Sta-Leu-benzylamide], for which, in experiment [1], the IC50 was determined as 31 nM. Also, the inhibition constant Ki in experiment [2] turned out to be 97 nM.
On to “His-Sta-Ala-Phe-methyl ester [His--Sta--Ala--Phe--methyl ester]”, for which, in experiment [1] (pH 7.3, at 10^-4 M), the “inhibition of renin activity at 10^-4 (printed in the I50 column)” value is 5%.
For the compound `CC(C)C[C@H](NC(=O)C[C@H](O)[C@H](Cc1ccccc1)NC(=O)[C@H](Cc1c[nH]cn1)NC(=O)COc1ccccc1)C(=O)NCc1ccccc1` [POA--His--AHPPA--Leu--benzylamide, Phenoxyacetyl-L-histidyl-(3S,4S)-AHPPA-L-leucyl-benzylamide], the IC50 in experiment [1] was found to be 20 nM. In addition, the affinity in experiment [2] corresponds to a Ki of 10 nM.
With `CC[C@H](C)[C@H](NC(=O)C[C@H](O)[C@H](CC1CCCCC1)NC(=O)[C@H](Cc1c[nH]cn1)NC(=O)COc1ccccc1)C(=O)NCc1ccccn1` [POA-His-ACHPA-Ile-2-pyridylmethylamide], the IC50 in experiment [1] was 1400 nM.
On to `CC(C)C[C@H](NC(=O)C[C@H](O)[C@H](CC1CCCCC1)NC(=O)[C@H](Cc1c[nH]cn1)NC(=O)COc1ccccc1)C(=O)N[C@@H](Cc1ccccc1)C(N)=O` [POA--His--ACHPA--Leu--Phe--amide, POA-His-ACHPA^4 -Leu-Phe-amide], for which the IC50 in experiment [1] was determined as 510 nM. This compound also came in with an inhibition constant (Ki) in experiment [2] of 1.1 nM.
For `CC(C)C[C@H](NC(=O)C[C@H](O)[C@H](Cc1ccccc1)NC(=O)[C@H](Cc1c[nH]cn1)NC(=O)CCc1ccccc1)C(=O)NCc1ccccc1` [3-phenylpropionyl-His-AHPPA-Leu-benzylamide], the IC50 in experiment [1] worked out at 35 nM. The Ki in experiment [2] was 71 nM.
With `COC(=O)[C@H](Cc1ccccc1)NC(=O)[C@H](CC(C)C)NC(=O)C[C@H](O)[C@H](CC(C)C)NC(=O)[C@H](Cc1c[nH]cn1)NC(=O)COc1ccccc1` [POA--His--Sta--Leu--Phe--methyl ester, POA^2 -His-Sta-Leu-Phe-methyl ester] (Phenoxyacetyl-H[Sta]LF-OMe), the IC50 in experiment [1] came to 3300 nM.
`CC(C)C[C@H](NC(=O)C[C@H](O)[C@H](CC(C)C)NC(=O)[C@H](Cc1c[nH]cn1)NC(=O)COc1ccccc1)C(=O)N[C@@H](Cc1ccccc1)C(N)=O` [POA--His--Sta--Leu--Phe--amide, POA-His-Sta-Leu-Phe-amide] (Phenoxyacetyl-H[Sta]LF-NH2): the IC50 in experiment [1] was determined as 7600 nM.
The same measure, in the same setting: next, `CC[C@H](C)[C@H](NC(=O)C[C@H](O)[C@H](CC1CCCCC1)NC(=O)[C@H](Cc1c[nH]cn1)NC(=O)COc1ccccc1)C(=O)NCc1ccccc1` [POA--His--ACHPA--Ile--benzylamide, POA-His-ACHPA-Ile-benzylamide]: 290 nM; `COC(=O)[C@H](Cc1ccccc1)NC(=O)[C@H](CC(C)C)NC(=O)C[C@H](O)[C@H](CC(C)C)NC(=O)[C@@H](N)Cc1c[nH]cn1` [His--Sta--Leu--Phe--methyl ester, His-Sta-Leu-Phe-methyl ester] (H-H[Sta]LF-OMe): 14000 nM; `CC(C)C[C@H](NC(=O)C[C@H](O)[C@H](CC(C)C)NC(=O)[C@H](Cc1c[nH]cn1)NC(=O)OC(C)(C)C)C(=O)N[C@@H](Cc1ccccc1)C(N)=O` [BOC--His--Sta--Leu--Phe--amide, BOC^1 -His-Sta-Leu-Phe-amide] (Boc-H[Sta]LF-NH2): 400000 nM.
Turning to `CC(C)C[C@H](NC(=O)C[C@H](O)[C@H](CC(C)C)NC(=O)[C@H](Cc1c[nH]cn1)NC(=O)CCc1ccccc1)C(=O)NCc1ccccc1` [3-phenylpropionyl-His-Sta-Leu-benzylamide], in experiment [1] (pH 7.3, at 10^-7 M, read-out: inhibition of renin activity at 10^-7 (printed in the I50 column)), the inhibition at 0.1 µM turned out to be 2%.
